Drawing on PubChem BioAssay AID248 (DTP/NCI, 2004), this text covers T/C for 11 compounds.

Where “and” joins values, the source holds several entries; their conditions need not be identical. Equal values may be shown once. Toxic doses and inconclusive results are not listed.

The test system of this assay is L1210 leukemia ip in BDF1 mice, survival T/C. Briefly: NCI In Vivo Anticancer Drug Screen. Data for tumor model L1210 Leukemia (intraperitoneal) in B6D2F1 (BDF1) mice. Conditions: higher = longer survival. An outline of the steps: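 In this screen, tumor-bearing mice given compound are compared to those given vehicle, and their survival values are reported as a treated-to-control quotient.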

[1] abbreviates: endpoint: mean survival time, dose: 100.0 mg/kg/injection, schedule: Q01DX001 (ip), vehicle: saline.
[2] abbreviates: endpoint: mean survival time, dose: 200.0 mg/kg/injection, schedule: Q01DX001 (ip), vehicle: saline.
[3] abbreviates: endpoint: mean survival time, dose: 400.0 mg/kg/injection, schedule: Q01DX001 (ip), vehicle: saline.

In the case of `N=c1ccn2c(n1)OC1C(OP(=O)(O)O)C(CO)OC12` (configuration not stated), the T/C (endpoint: mean survival time, dose: 5.0 mg/kg/injection, schedule: Q01DX009 (ip), vehicle: saline) was 115 % of control; the T/C (endpoint: mean survival time, dose: 25.0 mg/kg/injection, schedule: Q01DX009 (oral), vehicle: saline) is 172 % of control; the T/C (endpoint: mean survival time, dose: 40.0 mg/kg/injection, schedule: Q01DX009 (ip), vehicle: saline) was 152 % of control; the T/C (endpoint: mean survival time, dose: 50.0 mg/kg/injection, schedule: Q01DX009 (oral), vehicle: saline) was 167 % of control; the T/C (endpoint: mean survival time, dose: 80.0 mg/kg/injection, schedule: Q01DX009 (ip), vehicle: saline) was 175 % of control; the T/C (endpoint: mean survival time, dose: 100.0 mg/kg/injection, schedule: Q01DX005 (ip), vehicle: saline) is 152 % of control and 160 % of control. Moreover, the T/C by setting is: (endpoint: mean survival time, dose: 100.0 mg/kg/injection, schedule: Q01DX009 (ip), vehicle: saline) 184 % of control and 185 % of control; (endpoint: mean survival time, dose: 100.0 mg/kg/injection, schedule: Q01DX009 (oral), vehicle: saline) 190 % of control; (endpoint: mean survival time, dose: 160.0 mg/kg/injection, schedule: Q01DX009 (ip), vehicle: saline) 164 % of control; (endpoint: mean survival time, dose: 200.0 mg/kg/injection, schedule: Q01DX005 (ip), vehicle: saline) 168 % of control and 178 % of control; (endpoint: mean survival time, dose: 200.0 mg/kg/injection, schedule: Q01DX009 (ip), vehicle: saline) 163 % of control and 195 % of control; (endpoint: mean survival time, dose: 200.0 mg/kg/injection, schedule: Q01DX009 (oral), vehicle: saline) 201 % of control. For the same compound, the T/C is 192 % of control and 212 % of control (endpoint: mean survival time, dose: 400.0 mg/kg/injection, schedule: Q01DX009 (ip), vehicle: saline); 245 % of control (endpoint: mean survival time, dose: 400.0 mg/kg/injection, schedule: Q01DX009 (oral), vehicle: saline); 260 % of control (endpoint: mean survival time, dose: 800.0 mg/kg/injection, schedule: Q01DX009 (oral), vehicle: saline); 109 % of control (endpoint: median survival time, dose: 12.5 mg/kg/injection, schedule: Q01DX009 (oral), vehicle: saline); 111 % of control (endpoint: median survival time, dose: 12.5 mg/kg/injection, schedule: Q03HX008 (oral), vehicle: water); 109 % of control (endpoint: median survival time, dose: 25.0 mg/kg/injection, schedule: Q01DX009 (oral), vehicle: saline). Also, the T/C was 111 % of control (endpoint: median survival time, dose: 25.0 mg/kg/injection, schedule: Q03HX008 (oral), vehicle: water); 172 % of control (endpoint: median survival time, dose: 25.0 mg/kg/injection, schedule: Q03HX024 (oral), vehicle: water); 109 % of control (endpoint: median survival time, dose: 50.0 mg/kg/injection, schedule: Q01DX009 (oral), vehicle: saline); 150 % of control (endpoint: median survival time, dose: 50.0 mg/kg/injection, schedule: Q01DX009 (oral), vehicle: water); 188 % of control (endpoint: median survival time, dose: 50.0 mg/kg/injection, schedule: Q03HX024 (oral), vehicle: water); 166 % of control (endpoint: median survival time, dose: 100.0 mg/kg/injection, schedule: Q01DX009 (oral), vehicle: water). Besides, the T/C reads like this: (endpoint: median survival time, dose: 100.0 mg/kg/injection, schedule: Q03HX024 (oral), vehicle: water) 194 % of control; (endpoint: median survival time, dose: 200.0 mg/kg/injection, schedule: Q01DX001 (oral), vehicle: saline) 100 % of control; (endpoint: median survival time, dose: 200.0 mg/kg/injection, schedule: Q01DX001 (oral), vehicle: water) 116 % of control; (endpoint: median survival time, dose: 200.0 mg/kg/injection, schedule: Q01DX009 (oral), vehicle: water) 188 % of control; (endpoint: median survival time, dose: 200.0 mg/kg/injection, schedule: Q03HX008 (oral), vehicle: water) 161 % of control; (endpoint: median survival time, dose: 200.0 mg/kg/injection, schedule: Q03HX024 (oral), vehicle: water) 200 % of control. In addition, the T/C is, setting by setting: (endpoint: median survival time, dose: 400.0 mg/kg/injection, schedule: Q01DX001 (oral), vehicle: saline) 90 % of control; (endpoint: median survival time, dose: 400.0 mg/kg/injection, schedule: Q01DX001 (oral), vehicle: water) 122 % of control; (endpoint: median survival time, dose: 400.0 mg/kg/injection, schedule: Q01DX009 (oral), vehicle: saline) 177 % of control; (endpoint: median survival time, dose: 400.0 mg/kg/injection, schedule: Q01DX009 (oral), vehicle: water) 211 % of control; (endpoint: median survival time, dose: 400.0 mg/kg/injection, schedule: Q03HX008 (oral), vehicle: water) 111 % of control; (endpoint: median survival time, dose: 400.0 mg/kg/injection, schedule: Q03HX024 (oral), vehicle: water) 94 % of control. Also, the T/C by setting is: (endpoint: median survival time, dose: 400.0 mg/kg/injection, schedule: Q04DX003 (oral), vehicle: water) 155 % of control; (endpoint: median survival time, dose: 800.0 mg/kg/injection, schedule: Q01DX009 (oral), vehicle: saline) 200 % of control; (endpoint: median survival time, dose: 800.0 mg/kg/injection, schedule: Q04DX003 (oral), vehicle: water) 177 % of control; (endpoint: median survival time, dose: 1600.0 mg/kg/injection, schedule: Q01DX001 (oral), vehicle: saline) 154 % of control; (endpoint: median survival time, dose: 1600.0 mg/kg/injection, schedule: Q04DX003 (oral), vehicle: water) 188 % of control; (endpoint: median survival time, dose: 3200.0 mg/kg/injection, schedule: Q01DX001 (oral), vehicle: saline) 168 % of control. For the same compound, the T/C (endpoint: median survival time, dose: 3200.0 mg/kg/injection, schedule: Q04DX003 (oral), vehicle: water) was 166 % of control.
As for `Nc1nc([Se])c2ncn(C3CC(O)C(CO)O3)c2n1` (configuration not stated), the T/C by setting is: (endpoint: mean survival time, dose: 12.5 mg/kg/injection, schedule: Q01DX009 (ip), vehicle: saline) 196 % of control; (endpoint: mean survival time, dose: 25.0 mg/kg/injection, schedule: Q01DX005 (ip), vehicle: saline) 150 % of control and 151 % of control; (endpoint: mean survival time, dose: 25.0 mg/kg/injection, schedule: Q01DX009 (ip), vehicle: saline) 171 % of control; (endpoint: mean survival time, dose: 50.0 mg/kg/injection, schedule: Q01DX005 (ip), vehicle: saline) 123 % of control; (endpoint: mean survival time, dose: 50.0 mg/kg/injection, schedule: Q01DX009 (ip), vehicle: saline) 150 % of control.
Consider `CCc1c2cc3c(cc2cc2c4cc5c(cc4cc[n+]12)OCO5)OCO3` (tested in a mixture with another compound), for which the T/C reads like this: (endpoint: mean survival time, dose: 3.13 mg/kg/injection, schedule: Q01DX009 (ip), vehicle: Klucel (hydroxypropylcellulose) (HPC)) 122 % of control; (endpoint: mean survival time, dose: 3.13 mg/kg/injection, schedule: Q04DX003 (ip), vehicle: Klucel (hydroxypropylcellulose) (HPC)) 113 % of control; (endpoint: mean survival time, dose: 6.25 mg/kg/injection, schedule: Q01DX009 (ip), vehicle: Klucel (hydroxypropylcellulose) (HPC)) 110 % of control; (endpoint: mean survival time, dose: 6.25 mg/kg/injection, schedule: Q04DX003 (ip), vehicle: Klucel (hydroxypropylcellulose) (HPC)) 110 % of control; (endpoint: mean survival time, dose: 12.5 mg/kg/injection, schedule: Q04DX003 (ip), vehicle: Klucel (hydroxypropylcellulose) (HPC)) 113 % of control and 115 % of control.
On to `CCCCC(=O)NC1=CC(=O)c2ccccc2C1=O`, for which the T/C (endpoint: mean survival time, dose: 75.0 mg/kg/injection, schedule: Q01DX001 (ip), vehicle: saline) is 95 % of control and the T/C (endpoint: mean survival time, dose: 150.0 mg/kg/injection, schedule: Q01DX001 (ip), vehicle: saline) is 91 % of control.
Take `Cc1cc(CCl)c(C)cc1CCl`: the T/C runs as follows: (endpoint: mean survival time, dose: 25.0 mg/kg/injection, schedule: Q04DX003 (ip), vehicle: saline with Tween-80) 96 % of control; (endpoint: mean survival time, dose: 50.0 mg/kg/injection, schedule: Q04DX003 (ip), vehicle: saline with Tween-80) 90 % of control.
For the compound `Cc1cccc2c1SCCC2=O`, the T/C under setting [1] was 92 % of control, the T/C under setting [2] was 92 % of control and the T/C under setting [3] was 89 % of control.
Take `CCCCOC(=O)CCCCC(=O)OC(C)C(=O)OCCCC` (configuration not stated): the T/C runs as follows: under setting [1], 102 % of control; under setting [2], 102 % of control; under setting [3], 89 % of control.
`O=C(Nc1ccccc1)N1CCC2N(C(=O)Nc3ccccc3)CCC3N(C(=O)Nc4ccccc4)CCC1N23` (configuration not stated): the T/C was 94 % of control (endpoint: mean survival time, dose: 100.0 mg/kg/injection, schedule: Q04DX003 (ip), vehicle: Klucel (hydroxypropylcellulose) (HPC)); 96 % of control (endpoint: mean survival time, dose: 200.0 mg/kg/injection, schedule: Q04DX003 (ip), vehicle: Klucel (hydroxypropylcellulose) (HPC)); 100 % of control (endpoint: mean survival time, dose: 400.0 mg/kg/injection, schedule: Q04DX003 (ip), vehicle: Klucel (hydroxypropylcellulose) (HPC)).
As for `OCC1OC(n2cc(Br)c3c(NO)ncnc32)C(O)C1O` (configuration not stated), the T/C reads like this: (endpoint: mean survival time, dose: 5.0 mg/kg/injection, schedule: Q01DX001 (ip), vehicle: saline) 103 % of control; (endpoint: mean survival time, dose: 10.0 mg/kg/injection, schedule: Q01DX001 (ip), vehicle: saline) 101 % of control.
For `Nc1cc(=O)[nH]c(=S)n1-c1ccc(Br)cn1`, the T/C is 98 % of control (endpoint: mean survival time, dose: 100.0 mg/kg/injection, schedule: Q04DX003 (ip), vehicle: saline with Tween-80); 86 % of control (endpoint: mean survival time, dose: 200.0 mg/kg/injection, schedule: Q04DX003 (ip), vehicle: saline with Tween-80); 104 % of control (endpoint: mean survival time, dose: 400.0 mg/kg/injection, schedule: Q04DX003 (ip), vehicle: saline with Tween-80).
In the case of `O=C(Nc1cccc(C2=NCC(O)CN2)c1)c1ccc(C(=O)Nc2cccc(C3=NCC(O)CN3)c2)c(Cl)c1` (configuration not stated), under “endpoint: mean survival time, dose: 6.25 mg/kg/injection, schedule: Q01DX Z (ip), vehicle: water”, the T/C is 95 % of control.
